Assay results published in patent US5459158A, “Pharmaceutical compositions of indazoles and methods of use thereof” (priority 1992, dated 1995).
Read-outs that look alike come from different tables or passages of the source.

Experiments:
mouse cerebellar NOS [1] = target: T1, mouse cerebellar NOS (Mus musculus, UniProt Q9Z0J4); assay: inhibition of mouse cerebellar nitric oxide synthase (NOS) activity in vitro; format: biochemical; settings: for IC50: mouse cerebella homogenate, 15 minutes, 37° C., mean ± s.e. mean, n=6
T1 construct: Cerebella were removed, homogenized; from tissue; host or cells: cerebellum of male LACA mice, crude homogenate
T1 sequence (Q9Z0J4 whole entry): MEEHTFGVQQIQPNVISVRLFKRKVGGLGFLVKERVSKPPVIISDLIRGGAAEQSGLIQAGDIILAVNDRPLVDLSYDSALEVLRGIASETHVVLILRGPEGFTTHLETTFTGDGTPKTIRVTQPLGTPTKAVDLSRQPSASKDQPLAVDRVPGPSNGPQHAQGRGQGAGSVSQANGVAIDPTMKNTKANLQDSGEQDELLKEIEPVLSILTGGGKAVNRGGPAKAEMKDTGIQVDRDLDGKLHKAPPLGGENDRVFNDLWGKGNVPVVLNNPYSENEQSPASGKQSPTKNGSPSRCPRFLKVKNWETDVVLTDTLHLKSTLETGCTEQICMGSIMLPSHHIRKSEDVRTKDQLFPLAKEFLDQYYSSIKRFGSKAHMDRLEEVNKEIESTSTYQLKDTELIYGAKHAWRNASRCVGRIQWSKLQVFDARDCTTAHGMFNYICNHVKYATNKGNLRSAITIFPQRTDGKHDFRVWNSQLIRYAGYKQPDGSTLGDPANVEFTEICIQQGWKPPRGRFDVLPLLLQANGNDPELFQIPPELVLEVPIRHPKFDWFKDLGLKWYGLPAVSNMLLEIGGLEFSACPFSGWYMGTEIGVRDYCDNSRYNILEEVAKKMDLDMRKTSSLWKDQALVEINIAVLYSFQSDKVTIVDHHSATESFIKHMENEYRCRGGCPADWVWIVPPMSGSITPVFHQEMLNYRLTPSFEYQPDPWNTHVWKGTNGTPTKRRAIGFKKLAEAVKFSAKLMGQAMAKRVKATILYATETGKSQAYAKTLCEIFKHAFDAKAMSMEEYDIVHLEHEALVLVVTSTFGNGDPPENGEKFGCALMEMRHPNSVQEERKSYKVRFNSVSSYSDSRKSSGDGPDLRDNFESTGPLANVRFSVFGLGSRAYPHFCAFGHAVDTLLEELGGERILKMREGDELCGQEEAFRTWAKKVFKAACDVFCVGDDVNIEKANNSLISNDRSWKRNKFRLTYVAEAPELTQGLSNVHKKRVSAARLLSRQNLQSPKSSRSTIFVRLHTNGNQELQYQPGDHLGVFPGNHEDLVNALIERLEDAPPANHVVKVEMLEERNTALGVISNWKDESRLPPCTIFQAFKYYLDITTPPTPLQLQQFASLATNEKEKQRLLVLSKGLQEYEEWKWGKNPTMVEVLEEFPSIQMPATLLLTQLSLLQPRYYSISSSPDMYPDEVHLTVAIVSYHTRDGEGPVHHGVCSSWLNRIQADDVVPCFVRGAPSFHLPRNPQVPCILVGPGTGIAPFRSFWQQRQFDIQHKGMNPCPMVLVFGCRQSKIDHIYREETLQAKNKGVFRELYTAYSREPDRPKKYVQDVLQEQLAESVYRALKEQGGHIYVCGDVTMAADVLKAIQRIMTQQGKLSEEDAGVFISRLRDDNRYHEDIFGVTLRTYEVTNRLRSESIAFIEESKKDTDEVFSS

[2] = target: T2, rat cerebellar nitric oxide synthase (NOS) (Rattus norvegicus, UniProt P29476); assay: inhibition of rat cerebellar nitric oxide synthase (NOS); format: biochemical
T2 construct: from tissue
Method: Nitric oxide synthase (NOS) activity was determined in vitro by the method of Dwyer et al., Biochem. Biophys. Res. Commun. 1991, 176, 1136-1141. Mice (male, LACA, 28-32 g) were killed by cervical dislocation. Cerebella were removed, homogenized (1-10 w/v in 20 mM Tris buffer containing 2 mM EDTA, pH. 7.4) and aliquots (25 μl) incubated (37° C.) with L-arginine (120 nM) containing 0.5 μCi [^3 H]-arginine (specific activity 62 Ci mmol^-1), NADPH (0.5 mM) and CaCl2 (0.75 mM). […] Final incubation volume was 105 μl. After 15 minutes the reaction was stopped by addition of 3 ml HEPES buffer (20 mM containing 2 mM EDTA, pH 5.5) and the [^3 H]-citrulline produced was separated by cation exchange chromatography on 0.5 ml columns of Dowex AG50-W8 Na^+ form. [^3 H]-Citrulline was quantitated by liquid scintillation spectroscopy of duplicate 1 ml aliquots of the flow-through.

[3] = blood pressure (MAP) of urethane-anaesthetized mice; format: in vivo, mouse; settings: for mean arterial pressure (MAP): n=4
mouse cerebellar NOS [4] = target: T1, mouse cerebellar NOS; assay: mouse cerebellar NOS activity after i.p. administration (ex vivo); format: in vivo; settings: n=6, P<0.01
Method: Nitric oxide synthase (NOS) activity was determined in vitro by the method of Dwyer et al., Biochem. Biophys. Res. Commun. […] Mice (male, LACA, 28-32 g) were killed by cervical dislocation. […] Final incubation volume was 105 μl. After 15 minutes the reaction was stopped by addition of 3 ml HEPES buffer (20 mM containing 2 mM EDTA, pH 5.5) and the [^3 H]-citrulline produced was separated by cation exchange chromatography on 0.5 ml columns of Dowex AG50-W8 Na^+ form. [^3 H]-Citrulline was quantitated by liquid scintillation spectroscopy of duplicate 1 ml aliquots of the flow-through.
Cerebella were removed, homogenized and NOS activity determined as described above.

mice = assay: anti-nociceptive activity, formalin-induced hindpaw licking assay; format: in vivo, mouse; settings: for Inhibition of licking (%): 50 mg kg^-1 i.p., late phase
Method: Control animals received 10 ml kg^-1 of arachis oil or saline (0.9% w/v NaCl).
The percentage inhibition of formalin-induced licking in the late phase following the administration of 50 mg kg^-1 i.p. of the indazoles is shown in the Table below.

nitric oxide synthase = settings: Moore et al., British Journal of Pharmacology, 1991, 102, 198-202; cited from earlier work
[5] = rat cerebella, read-out: IC50 NOS
[6] = ratio of IC50 on mouse cerebellar NOS in vitro

`CNC(=N)NCCC[C@H](N)C(=O)O` [L-NMMA, L-N^G -monomethyl arginine, reference compound] showed an IC50 (mouse cerebellar NOS [1]) of 2.37 ± 0.03 µM.

`O=[N+]([O-])c1ccc2[nH]ncc2c1` [5-nitroindazole] gave an IC50 [2, 5] of 56 µM.

Work on `O=[N+]([O-])c1ccc2[nH]nc(Cl)c2c1` [3-chloro-5-nitroindazole] yielded an IC50 [2, 5] of 177 µM.

For `O=[N+]([O-])c1cccc2cn[nH]c12` [7-nitroindazole], the “mean arterial pressure (MAP)” value ([3]; 25 mg kg^-1 i.p., cf 51.6±4.4 before administration) was 47.4±5.1 mmHg, the “mean arterial pressure (MAP)” value ([3]; 80 mg kg^-1 i.p., cf 49.5±2.9 before administration) was 43.9±5.3 mmHg and the “mean arterial pressure (MAP), change in words” value ([3]; 25 and 80 mg kg^-1 i.p., over 45 minutes) was “did not increase mean arterial pressure”. The IC50 (mouse cerebellar NOS [1]) was 0.47 ± 0.01 µM, the “times more potent than L-NAME” value (mouse cerebellar NOS [1]; [6]) was 1.8 times and the “times more potent than L-NMMA” value (mouse cerebellar NOS [1]; [6]) was 5 times. The “decrease of mouse cerebellar NOS activity” value (mouse cerebellar NOS [4]; 25 mg kg^-1, i.p., 15 minutes thereafter) was “over 55%”, the “mouse cerebellar NOS activity” value (mouse cerebellar NOS [4]; 25 mg kg^-1, i.p., 15 minutes, cf 9.1±0.26 arachis oil-injected controls) was 3.9±0.06 nmol citrulline mg^-1 protein 15 min^-1 and the “Inhibition of licking (%)” value (mice) was 100%. The “early phase response of formalin-induced hindpaw licking (in words)” value (mice; 10, 25 and 50 mg kg^-1 i.p., early phase (0-5 minutes)) was “without influencing the early phase response”, the “inhibition of late phase formalin-induced hindpaw licking (in words)” value (mice; 10, 25 and 50 mg kg^-1 i.p., late phase (15-30 minutes)) was “dose-related inhibition of late phase formalin-induced hindpaw licking” and the “ED50 for the anti-nociceptive effect” value (mice; i.p., mice) was 26 mg/kg. For the same molecule, the “ED50 for the anti-nociceptive effect (equivalent)” value (mice; i.p., mice, converted from 26 mg kg^-1) was 159.5 µmol/kg.

For `c1ccc2[nH]ncc2c1` [indazole], the IC50 [2] was 232 µM and the “Inhibition of licking (%)” value (mice) was 83.2 ± 12.2%.

With `COC(=O)[C@@H](N)CCCNC(=N)N[N+](=O)[O-]` [L-NAME, L-N^G -nitroarginine methyl ester, reference compound] the IC50 (mouse cerebellar NOS [1]) was 0.87 ± 0.02 µM, the “mouse cerebellar NOS activity” value (mouse cerebellar NOS [4]; 50 mg kg^-1, i.p., 15 minutes, cf 8.33±0.15 saline-injected controls) was 4.46±0.012 pmol citrulline mg^-1 protein 15 min^-1 and the inhibition at 50 mg/kg (mouse cerebellar NOS [4]; mouse, ip, 50 mg kg^-1, i.p., 15 minutes) was 46.2 ± 1.6%. The “block of nitric oxide synthase in brain and peripherally” value (nitric oxide synthase) was “blocks this enzyme not only in the brain but also peripherally”.

With `O=[N+]([O-])c1ccc2cn[nH]c2c1` [6-nitroindazole] the IC50 [2, 5] was 32 µM and the “Inhibition of licking (%)” value (mice) was 67.0 ± 12.0%.

Molecule `Clc1n[nH]c2ccccc12` [3-chloroindazole] has an IC50 [2, 5] of 100 µM.
